Reference: US20240344145A1, “PHARMACOGENOMICS SCORE TO MAKE DECISIONS ON THERAPY AUGMENTATION IN AML” (University of Florida Research Foundation, Incorporated, priority 2021, published 2024)

Tested on: ara-C metabolic pathway genes
Assay: Association of ara-C pathway SNP genotypes with MRD1, EFS and OS in AML02 (logistic regression and Cox models; also within LDAC and HDAC arms)
Set-up: species or system human
Conditions: within arm of AML02
Excerpt: Genomic DNA from patients enrolled in the multi-site St. Jude AML02 trial was genotyped for 155 SNPs in 16 genes of relevance to ara-C pharmacology using sequenom iPlex platform that uses MALDI-TOF based chemistry at University of Minnesota, Biomedical Genomics Center. SNPs were selected based on previously reported studies. For SNPs lacking literature on genetic variation, SNPs were selected to capture LD blocks (European and African ancestry) on a gene. Of 155 SNPs, 1 SNP was excluded due to low call rate (<90%), 47 SNPs were excluded due to minimum allele frequency of less than 5%, 11 SNPs were excluded due to high LD (r^2>0.9) with other SNPs; two SNPs were excluded because of deviation from Hardy-Weinberg equilibrium. Genotype for the COG-AAML0531 cohort for the selected SNPs was obtained using sequenom platform or TaqMan genotyping assays, and for a few SNPs was extracted from the data available on Illumina 2.5 Omni array. Genotype calls from multiple platforms were confirmed across multiple samples randomly collected from the cohort.
SNP genotype groups in three different modes of inheritance (additive, dominant, and recessive) were tested for association with MRD1 using logistic regression models. Odds ratio (OR) and 95% confidence interval (CI) were calculated for each test. SNPs with association P-value<0.05 were considered significant. Cox-proportional hazard models were used to evaluate association of genotype groups with EFS or OS. Hazard ratio (HR) and 95% CI were calculated for each test. p-value<0.05 was considered statistically significant. Given initial risk group assignments are well-established prognostic factors associated with outcome, outcome association analysis of SNPs with and without adjusting for risk group was also performed to identify SNPs that are associated with outcome independent of risk group.
SNPs with p<0.15 in risk-adjusted univariate evaluation with clinical endpoints (MRD1, EFS, and OS) were tested for all possible combinations with a maximum of three SNPs per model in multivariable logistic regression models for association with MRD1 and Cox-proportional hazard models for association with EFS and OS. Analysis for up to 3 SNP combinations was restricted due to computational challenges as increasing the maximum number of SNPs per model drastically increases the number of models as 1000 permutations were run for each model. Models were ordered according to their Bayesian Information Criterion (BIC) and weight in favor of each model. One thousand permutation tests were performed for each model to determine statistical significance. The six unique SNPs from the most significant models for EFS and MRD1 were included in the development of the ACS10 score as described in the results section.
The multicenter AML02 clinical trial randomly assigned subjects to receive low dose ara-C (LDAC: 100 mg/m^2; n=91 patients) or high dose ara-C(HDAC: 3 g/m^2; n=75 patients) in combination with daunorubicin and etoposide as the first course of chemotherapy as described above in patient cohort section. Thus, the association of SNPs with outcome within each arm separately was also explored (Table 5).

[1] = rs4742 (DCTD, WT T, VAR C), MOI R
[2] = rs5841 (NME4, WT C, VAR T), MOI D
[3] = rs324148 (SLC29A1, WT C, VAR T), MOI A
[4] = rs407983 (NME4, WT G, VAR C), MOI A
[5] = rs507964 (SLC29A1, WT C, VAR A), MOI R
[6] = rs580032 (CDA, WT T, VAR G), MOI D
[7] = rs602950 (CDA, WT T, VAR C), MOI A
[8] = rs747199 (SLC29A1, WT C, VAR G), MOI D
[9] = rs818196 (CDA, WT G, VAR C), MOI D
[10] = rs1048977 (CDA, WT C, VAR T), MOI D
[11] = rs1138729 (RRM2, WT A, VAR G), MOI D
[12] = rs2072671 (CDA, WT A, VAR C), MOI A
[13] = rs2396243 (SLC29A1, WT G, VAR A), MOI D
[14] = rs3088062 (CMPK1, WT T, VAR C), MOI A
[15] = rs3743162 (SLC28A1, WT C, VAR T), MOI D
[16] = rs3829540 (NME3, WT G, VAR A), MOI D
[17] = rs3925058 (CMPK1, WT T, VAR C), MOI D
[18] = rs4247411 (SLC28A1, WT C, VAR T), MOI D
[19] = rs4271567 (SLC28A1, WT T, VAR A), MOI R
[20] = rs4643786 (DCK, WT T, VAR C), MOI R

With `Nc1ccn([C@@H]2O[C@H](CO)[C@@H](O)[C@@H]2O)c(=O)n1` [HDAC, cytarabine] the “EFS HR (95% CI)” value [1] was 1.53 (0.98-2.4), the “MRD1 OR (95% CI)” value [1] was 1.08 (0.49-2.38) and the “OS HR (95% CI)” value [1] was 1.49 (0.91-2.46). The “EFS HR (95% CI)” value [2] was 0.86 (0.6-1.23), the “MRD1 OR (95% CI)” value [2] was 0.48 (0.28-0.81) and the “OS HR (95% CI)” value [2] was 1.15 (0.74-1.81). For the same compound, the “EFS HR (95% CI)” value [3] was 0.88 (0.52-1.5), the “MRD1 OR (95% CI)” value [3] was 1.08 (0.55-2.1) and the “OS HR (95% CI)” value [3] was 0.75 (0.39-1.46). The “EFS HR (95% CI)” value [4] was 1.1 (0.7-1.72), the “MRD1 OR (95% CI)” value [4] was 1.43 (0.76-2.67) and the “OS HR (95% CI)” value [4] was 1.05 (0.62-1.8). The “EFS HR (95% CI)” value [5] was 1.71 (1.12-2.62), the “MRD1 OR (95% CI)” value [5] was 1.01 (0.51-2.01) and the “OS HR (95% CI)” value [5] was 1.37 (0.8-2.36). For the same compound, the “EFS HR (95% CI)” value [6] was 0.45 (0.22-0.92), the “MRD1 OR (95% CI)” value [6] was 0.91 (0.49-1.66) and the “OS HR (95% CI)” value [6] was 0.58 (0.28-1.19). The “EFS HR (95% CI)” value [7] was 1.25 (0.74-2.09), the “MRD1 OR (95% CI)” value [7] was 0.69 (0.32-1.48) and the “OS HR (95% CI)” value [7] was 0.86 (0.44-1.69). The “EFS HR (95% CI)” value [8] was 0.97 (0.66-1.42), the “MRD1 OR (95% CI)” value [8] was 1.37 (0.82-2.29) and the “OS HR (95% CI)” value [8] was 1.1 (0.72-1.71). The “EFS HR (95% CI)” value [9] was 0.66 (0.45-0.98), the “MRD1 OR (95% CI)” value [9] was 0.9 (0.56-1.47) and the “OS HR (95% CI)” value [9] was 0.73 (0.47-1.14). The “EFS HR (95% CI)” value [10] was 0.9 (0.63-1.28), the “MRD1 OR (95% CI)” value [10] was 1.09 (0.67-1.78) and the “OS HR (95% CI)” value [10] was 1.44 (0.7-2.98). The “EFS HR (95% CI)” value [11] was 1.14 (0.78-1.66), the “MRD1 OR (95% CI)” value [11] was 1.04 (0.61-1.77) and the “OS HR (95% CI)” value [11] was 1.42 (0.93-2.17). The “EFS HR (95% CI)” value [12] was 1.18 (0.7-1.99), the “MRD1 OR (95% CI)” value [12] was 0.73 (0.34-1.56) and the “OS HR (95% CI)” value [12] was 0.89 (0.46-1.75). The “EFS HR (95% CI)” value [13] was 0.94 (0.63-1.39), the “MRD1 OR (95% CI)” value [13] was 1.39 (0.84-2.31) and the “OS HR (95% CI)” value [13] was 0.87 (0.54-1.4). For the same compound, the “EFS HR (95% CI)” value [14] was 1.41 (0.8-2.51), the “MRD1 OR (95% CI)” value [14] was 1.16 (0.48-2.81) and the “OS HR (95% CI)” value [14] was 1.48 (0.75-2.94). For the same compound, the “EFS HR (95% CI)” value [15] was 1.65 (1.15-2.36), the “MRD1 OR (95% CI)” value [15] was 1.89 (1.15-3.11) and the “OS HR (95% CI)” value [15] was 1.43 (0.94-2.18). The “EFS HR (95% CI)” value [16] was 0.71 (0.47-1.09), the “MRD1 OR (95% CI)” value [16] was 0.82 (0.49-1.37) and the “OS HR (95% CI)” value [16] was 0.51 (0.27-0.93). For the same compound, the “EFS HR (95% CI)” value [17] was 0.81 (0.56-1.18), the “MRD1 OR (95% CI)” value [17] was 1.41 (0.79-2.53) and the “OS HR (95% CI)” value [17] was 0.76 (0.49-1.18). The “EFS HR (95% CI)” value [18] was 1.69 (1.08-2.64), the “MRD1 OR (95% CI)” value [18] was 1.91 (1.08-3.37) and the “OS HR (95% CI)” value [18] was 1.72 (1-2.95). The “EFS HR (95% CI)” value [19] was 0.52 (0.29-0.95), the “MRD1 OR (95% CI)” value [19] was 0.66 (0.35-1.23) and the “OS HR (95% CI)” value [19] was 0.54 (0.26-1.11). For the same compound, the “EFS HR (95% CI)” value [20] was 1.15 (0.63-2.09), the “MRD1 OR (95% CI)” value [20] was 0.87 (0.36-2.12) and the “OS HR (95% CI)” value [20] was 1.38 (0.75-2.56).
